Assay type in all cases: ADME
Data set [1] deals with T1, UDP-glucuronosyltransferase 1A3 (Homo sapiens, UniProt P35503).
T1 sequence (P35503 whole entry): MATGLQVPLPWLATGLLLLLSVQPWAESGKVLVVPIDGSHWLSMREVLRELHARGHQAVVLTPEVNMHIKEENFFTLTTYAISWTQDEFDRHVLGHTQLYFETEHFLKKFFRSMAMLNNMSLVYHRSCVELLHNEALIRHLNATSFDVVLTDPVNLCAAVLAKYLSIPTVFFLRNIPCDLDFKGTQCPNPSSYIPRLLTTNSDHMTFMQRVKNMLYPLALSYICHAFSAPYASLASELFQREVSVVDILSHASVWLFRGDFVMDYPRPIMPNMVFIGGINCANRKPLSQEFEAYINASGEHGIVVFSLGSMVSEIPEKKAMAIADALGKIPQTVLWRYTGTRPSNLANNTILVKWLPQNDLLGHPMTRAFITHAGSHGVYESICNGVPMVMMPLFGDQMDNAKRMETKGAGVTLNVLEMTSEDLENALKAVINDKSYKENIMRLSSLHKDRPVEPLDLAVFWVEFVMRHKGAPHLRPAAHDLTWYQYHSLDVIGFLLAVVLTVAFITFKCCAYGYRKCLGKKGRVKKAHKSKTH
Put plainly: Substrate of human UDP-glucuronosyltransferase UGT1A3.

The target in data set [2] is T2, UDP-glucuronosyltransferase 1A6 (Homo sapiens, UniProt P19224).
T2 sequence (P19224 whole entry): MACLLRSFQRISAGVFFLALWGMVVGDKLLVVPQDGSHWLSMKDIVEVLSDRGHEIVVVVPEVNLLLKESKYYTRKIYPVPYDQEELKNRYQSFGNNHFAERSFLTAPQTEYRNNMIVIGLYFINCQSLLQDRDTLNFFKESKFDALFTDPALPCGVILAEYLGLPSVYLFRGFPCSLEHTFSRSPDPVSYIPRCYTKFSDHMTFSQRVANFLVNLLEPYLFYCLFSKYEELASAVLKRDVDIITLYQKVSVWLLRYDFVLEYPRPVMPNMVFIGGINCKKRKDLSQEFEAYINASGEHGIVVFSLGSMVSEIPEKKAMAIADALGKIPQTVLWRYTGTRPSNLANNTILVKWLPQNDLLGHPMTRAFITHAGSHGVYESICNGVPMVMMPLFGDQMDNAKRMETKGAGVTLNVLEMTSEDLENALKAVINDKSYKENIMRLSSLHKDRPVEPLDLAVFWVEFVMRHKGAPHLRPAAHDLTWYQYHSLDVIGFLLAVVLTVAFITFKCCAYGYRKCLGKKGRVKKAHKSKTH
Put plainly: Substrate of human UDP-glucuronosyltransferase UGT1A6.

The target of data set [3] is Sulfotransferase 1A1 (Homo sapiens, UniProt P50225). Put plainly: Major substrate of human cytosolic sulfotransferase SULT1A1.
Chain of Sulfotransferase 1A1 (P50225 whole entry): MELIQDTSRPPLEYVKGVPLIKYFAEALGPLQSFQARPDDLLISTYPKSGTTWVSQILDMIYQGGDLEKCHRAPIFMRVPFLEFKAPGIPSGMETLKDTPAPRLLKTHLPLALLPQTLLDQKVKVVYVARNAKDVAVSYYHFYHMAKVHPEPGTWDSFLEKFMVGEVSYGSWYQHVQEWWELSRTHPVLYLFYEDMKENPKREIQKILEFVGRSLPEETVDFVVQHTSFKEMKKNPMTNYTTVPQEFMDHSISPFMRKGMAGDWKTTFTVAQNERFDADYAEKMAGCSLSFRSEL
The target of data set [4] is T3, UDP-glucuronosyltransferase 1A9 (Homo sapiens, UniProt O60656).
T3 sequence (O60656 whole entry): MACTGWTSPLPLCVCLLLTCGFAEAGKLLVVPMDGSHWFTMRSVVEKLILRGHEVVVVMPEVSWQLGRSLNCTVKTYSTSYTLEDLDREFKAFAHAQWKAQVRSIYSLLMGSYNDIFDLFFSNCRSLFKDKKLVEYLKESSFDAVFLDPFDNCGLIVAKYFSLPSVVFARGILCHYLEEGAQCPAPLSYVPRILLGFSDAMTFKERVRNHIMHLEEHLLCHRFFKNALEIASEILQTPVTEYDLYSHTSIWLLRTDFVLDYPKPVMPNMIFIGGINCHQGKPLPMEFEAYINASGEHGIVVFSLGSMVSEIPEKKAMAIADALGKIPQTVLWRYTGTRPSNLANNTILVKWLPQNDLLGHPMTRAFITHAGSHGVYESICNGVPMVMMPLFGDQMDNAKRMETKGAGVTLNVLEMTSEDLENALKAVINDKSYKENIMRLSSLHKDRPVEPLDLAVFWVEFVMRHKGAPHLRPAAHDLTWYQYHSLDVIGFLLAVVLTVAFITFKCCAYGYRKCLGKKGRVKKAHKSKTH
The data set is described as follows: Substrate of human UDP-glucuronosyltransferase UGT1A9.

Data set [5] addresses T4, UDP-glucuronosyltransferase 1A1 (Homo sapiens, UniProt P22309).
T4 sequence (P22309 whole entry): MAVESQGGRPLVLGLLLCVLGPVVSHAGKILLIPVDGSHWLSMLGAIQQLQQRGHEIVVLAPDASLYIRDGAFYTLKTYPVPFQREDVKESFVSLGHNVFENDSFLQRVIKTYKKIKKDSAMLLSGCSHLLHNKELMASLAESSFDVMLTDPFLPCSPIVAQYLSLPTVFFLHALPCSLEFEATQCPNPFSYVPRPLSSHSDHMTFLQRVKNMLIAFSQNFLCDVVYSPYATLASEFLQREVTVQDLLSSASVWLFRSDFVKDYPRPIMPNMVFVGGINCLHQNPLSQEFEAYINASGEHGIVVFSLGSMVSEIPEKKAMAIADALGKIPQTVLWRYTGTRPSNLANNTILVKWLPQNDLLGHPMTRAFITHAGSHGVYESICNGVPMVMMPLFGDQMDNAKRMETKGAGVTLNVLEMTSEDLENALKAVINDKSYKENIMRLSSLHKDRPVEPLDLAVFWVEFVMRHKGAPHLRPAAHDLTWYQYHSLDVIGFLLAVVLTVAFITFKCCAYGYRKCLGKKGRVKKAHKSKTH
Put plainly: Substrate of human UDP-glucuronosyltransferase UGT1A1.

Data set [6] deals with Sulfotransferase 1C4 (Homo sapiens, UniProt O75897). Put plainly: Major substrate of human cytosolic sulfotransferase SULT1C4.
Chain of Sulfotransferase 1C4 (O75897 whole entry, canonical isoform): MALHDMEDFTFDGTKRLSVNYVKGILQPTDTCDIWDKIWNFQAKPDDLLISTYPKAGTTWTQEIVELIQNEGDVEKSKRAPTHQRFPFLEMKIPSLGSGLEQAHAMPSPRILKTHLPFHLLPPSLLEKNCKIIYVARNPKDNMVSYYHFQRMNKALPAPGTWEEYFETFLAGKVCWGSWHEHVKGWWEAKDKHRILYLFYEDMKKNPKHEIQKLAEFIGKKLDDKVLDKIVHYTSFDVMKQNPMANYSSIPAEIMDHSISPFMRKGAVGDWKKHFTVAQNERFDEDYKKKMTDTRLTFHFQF
Data set [7] concerns the target Cytochrome P450 2C9 (Homo sapiens, UniProt P11712). The data set is described as follows: Clinically relevant inhibitors of human liver microsomal P450 enzymes, isoform CYP2C9. The note with it: microsomes.
Data set [8] has as its target T5, Sulfotransferase 1E1 (Homo sapiens, UniProt P49888).
T5 sequence (P49888 whole entry): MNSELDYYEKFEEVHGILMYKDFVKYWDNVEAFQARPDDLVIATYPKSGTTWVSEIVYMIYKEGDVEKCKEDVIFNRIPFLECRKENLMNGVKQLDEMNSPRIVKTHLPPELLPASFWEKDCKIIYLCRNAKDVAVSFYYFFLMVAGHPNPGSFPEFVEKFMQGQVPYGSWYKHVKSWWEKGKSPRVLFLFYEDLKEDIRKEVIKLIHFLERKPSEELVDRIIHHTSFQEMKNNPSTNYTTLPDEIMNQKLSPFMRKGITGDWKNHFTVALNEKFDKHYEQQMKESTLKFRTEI
Put plainly: Major substrate of human cytosolic sulfotransferase SULT1E1.

Data set [9] deals with Glutathione S-transferase P (Homo sapiens, UniProt P09211). The data set is described as follows: Substrates for human cytosolic glutathione transferase GSTP1.
Chain of Glutathione S-transferase P (P09211 whole entry): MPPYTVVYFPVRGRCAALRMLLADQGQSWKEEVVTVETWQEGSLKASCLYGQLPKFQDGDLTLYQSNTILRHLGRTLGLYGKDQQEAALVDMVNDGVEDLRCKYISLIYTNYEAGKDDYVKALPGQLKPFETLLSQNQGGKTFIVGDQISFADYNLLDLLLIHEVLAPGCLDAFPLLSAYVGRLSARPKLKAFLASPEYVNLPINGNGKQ
In data set [10] the target is T6, UDP-glucuronosyltransferase 2B7 (Homo sapiens, UniProt P16662).
T6 sequence (P16662 whole entry): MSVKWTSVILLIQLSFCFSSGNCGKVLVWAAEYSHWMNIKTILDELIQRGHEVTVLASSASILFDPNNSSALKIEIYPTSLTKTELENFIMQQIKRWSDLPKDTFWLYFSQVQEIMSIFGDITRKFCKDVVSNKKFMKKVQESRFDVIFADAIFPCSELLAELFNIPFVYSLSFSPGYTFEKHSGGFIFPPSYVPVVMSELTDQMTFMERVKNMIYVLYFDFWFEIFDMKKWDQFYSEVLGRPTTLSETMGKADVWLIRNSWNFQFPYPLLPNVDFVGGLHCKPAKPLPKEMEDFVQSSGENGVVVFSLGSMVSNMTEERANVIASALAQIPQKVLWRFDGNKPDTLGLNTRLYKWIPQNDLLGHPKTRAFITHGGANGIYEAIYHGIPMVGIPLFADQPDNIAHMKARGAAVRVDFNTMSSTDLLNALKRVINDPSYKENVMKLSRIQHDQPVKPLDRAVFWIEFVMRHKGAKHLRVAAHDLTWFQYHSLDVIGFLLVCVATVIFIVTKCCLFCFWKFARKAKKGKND
Put plainly: Substrate of human UDP-glucuronosyltransferase UGT2B7.

In data set [11] the target is T7, Glutathione S-transferase A1 (Homo sapiens, UniProt P08263).
T7 sequence (P08263 whole entry): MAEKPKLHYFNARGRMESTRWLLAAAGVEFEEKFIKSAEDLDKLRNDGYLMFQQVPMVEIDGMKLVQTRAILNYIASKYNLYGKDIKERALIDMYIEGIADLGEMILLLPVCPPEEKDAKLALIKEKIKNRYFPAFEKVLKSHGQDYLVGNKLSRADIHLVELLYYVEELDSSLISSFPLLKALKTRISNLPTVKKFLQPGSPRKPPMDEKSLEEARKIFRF
Put plainly: Substrates for human cytosolic glutathione transferase GSTA1.

In data set [12] the target is T8, Cytochrome P450 1A2 (Homo sapiens, UniProt P05177).
T8 sequence (P05177 whole entry): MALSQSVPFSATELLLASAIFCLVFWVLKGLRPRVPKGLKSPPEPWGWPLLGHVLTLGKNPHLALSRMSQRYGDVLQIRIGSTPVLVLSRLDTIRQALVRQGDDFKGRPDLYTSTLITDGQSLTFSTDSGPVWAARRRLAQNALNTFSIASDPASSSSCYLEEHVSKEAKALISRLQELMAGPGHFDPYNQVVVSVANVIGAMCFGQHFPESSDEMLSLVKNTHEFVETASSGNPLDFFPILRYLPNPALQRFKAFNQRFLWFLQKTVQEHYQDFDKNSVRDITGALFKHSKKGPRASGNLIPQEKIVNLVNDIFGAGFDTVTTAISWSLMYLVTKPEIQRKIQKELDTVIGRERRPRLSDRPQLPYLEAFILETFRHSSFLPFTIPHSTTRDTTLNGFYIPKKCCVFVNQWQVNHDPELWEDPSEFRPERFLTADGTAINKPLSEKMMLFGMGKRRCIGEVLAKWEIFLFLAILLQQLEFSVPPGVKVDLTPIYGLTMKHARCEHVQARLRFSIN
The data set is described as follows: Clinically relevant substrates of human liver microsomal P450 enzymes, isoform CYP1A2. The note with it: microsomes. A general note: Liver microsomes are a subcellular fraction often used to study metabolism.

The structures appear in SMILES notation.

Chain of Cytochrome P450 2C9 (P11712 whole entry, canonical isoform): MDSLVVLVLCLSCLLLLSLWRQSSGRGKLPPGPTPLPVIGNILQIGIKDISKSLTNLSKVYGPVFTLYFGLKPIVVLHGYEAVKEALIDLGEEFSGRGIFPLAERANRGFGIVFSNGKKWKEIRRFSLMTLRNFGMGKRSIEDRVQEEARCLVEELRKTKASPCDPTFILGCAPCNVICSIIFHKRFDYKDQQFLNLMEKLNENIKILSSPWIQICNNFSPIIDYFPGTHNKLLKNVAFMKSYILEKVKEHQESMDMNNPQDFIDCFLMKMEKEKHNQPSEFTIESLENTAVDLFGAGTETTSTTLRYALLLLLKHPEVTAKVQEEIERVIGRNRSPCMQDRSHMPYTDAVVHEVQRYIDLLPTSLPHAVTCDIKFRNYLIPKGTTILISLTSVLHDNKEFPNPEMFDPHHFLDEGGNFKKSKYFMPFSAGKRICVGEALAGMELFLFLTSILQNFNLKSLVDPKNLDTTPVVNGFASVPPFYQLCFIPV

Take `CN1CCC(=C2c3ccccc3CC(=O)c3sccc32)CC1` [KETOTIFEN]: the Activity entry in data set [1] was “Substrate”. Consider `Cc1cc(=O)oc2cc(O)ccc12` [HYMECROMONE], for which the Activity result in [2] is “Substrate”.

As for `CC(=O)Nc1ccc(O)cc1` [ACETAMINOPHEN], the Activity entry in data set [3], in [4], in data set [2] and in data set [5] was “Substrate” throughout. Consider `CCCCCCCCCc1ccc(O)cc1` [4-NONYLPHENOL], for which, in [6], the Activity result is given as “Substrate”.

Turning to `C[C@]12COC(=O)C[C@@H]1CC[C@@H]1[C@@H]2CC[C@@]2(C)[C@H]1CC[C@]2(C)O` [OXANDROLONE], the Activity entry in data set [7] is listed as “Inhibitor”.

Regarding `C[C@]12CC[C@@H]3c4ccc(O)cc4CC[C@H]3[C@@H]1CC[C@@H]2O[C@@H]1O[C@H](C(=O)O)[C@@H](O)[C@H](O)[C@H]1O` [ESTRADIOL 17B GLUCURONIDE], the Activity entry in data set [5] was “Substrate”. Consider `CC(C)(c1ccc(O)cc1)c1ccc(O)cc1` [BISPHENOL A], for which the Activity result in [6] is given as “Substrate”. As to `O=C1[C@H](CC[C@H](O)c2ccc(F)cc2)[C@@H](c2ccc(O)cc2)N1c1ccc(F)cc1` [EZETIMIBE], the Activity entry in data set [1] is recorded as “Substrate”.

As to `CC(C(=O)O)c1cccc(Oc2ccccc2)c1` (stereo not drawn) [FENOPROFEN], the Activity result in [1] and in data set [4] was “Substrate” throughout. As for `NCCc1c[nH]c2ccc(O)cc12` [SEROTONIN], the Activity result in data set [2] was “Substrate”. Turning to `CC/C(=C(/CC)c1ccc(O)cc1)c1ccc(O)cc1` [DIETHYLSTILBESTROL], the Activity result in data set [6] and in data set [8] was “Substrate” each time.

For the compound `O=C(O)COc1ccc(C(=O)c2cccs2)c(Cl)c1Cl`, the Activity result in data set [7] is reported as “Inhibitor”. For `C=CC=O` [ACROLEIN], in [9], the Activity result is “Substrate”. In the case of `S=P(N1CC1)(N1CC1)N1CC1` [THIOTEPA], the Activity result in data set [9] is “Substrate”. As to `COc1ccc2cc([C@H](C)C(=O)O)ccc2c1` [NAPROXEN], the Activity result in data set [1] and in data set [4] was “Substrate” each time.

On to `CC(C(=O)O)c1cccc(C(=O)c2ccccc2)c1` (stereo not drawn) [KETOPROFEN], for which the Activity result in data set [1], in data set [4] and in [10] was “Substrate” throughout. In the case of `CCCCCOC(=O)Nc1nc(=O)n([C@@H]2O[C@H](C)[C@@H](O)[C@H]2O)cc1F` [CAPECITABINE], the Activity entry in [7] is on record as “Inhibitor”. Turning to `C#C[C@]1(O)CC[C@H]2[C@@H]3CCc4cc(O)ccc4[C@H]3CC[C@@]21C` [ETHINYL ESTRADIOL], the Activity result in data set [8] and in data set [5] was “Substrate” each time. Consider `Nc1ccc(S(=O)(=O)Nc2ccnn2-c2ccccc2)cc1` [SULFAPHENAZOLE], for which the Activity result in data set [7] is “Inhibitor”. On to `C=CC1=C(C)/C(=C/c2[nH]c(Cc3[nH]c(/C=C4\NC(=O)C(C)=C4C=C)c(C)c3CCC(=O)O)c(CCC(=O)O)c2C)NC1=O` [BILIRUBIN], for which the Activity entry in data set [5] is “Substrate”. As to `O=C(O)CCCc1ccc(N(CCCl)CCCl)cc1` [CHLORAMBUCIL], the Activity entry in data set [11] and in data set [9] was “Substrate” throughout. As for `OC(Cn1cncn1)(Cn1cncn1)c1ccc(F)cc1F` [FLUCONAZOLE], in data set [7], the Activity entry was “Inhibitor”. `Nc1c2c(nc3ccccc13)CCCC2` [TACRINE]: in data set [12], the Activity result is recorded as “Substrate”.

The record behind these values is ChEMBL document CHEMBL1743201, “Casarett and Doull's Toxicology The Basic Science of Poisons, 7th edition” (2008).
